Reference: patent US20240043928A1, “BIOMARKERS FOR MYELODYSPLASTIC SYNDROME (MDS) AND METHODS OF USING THE SAME” (Eisai R&D Management Co., Ltd., priority 2020, published 2024)
Where two headings read alike, the source gives them in different places.

Tests used:
[1] = Non-human primate toxicity; assay type: in vivo
[2] = Phase I study NCT02841540: plasma pharmacokinetics; assay type: in vivo, human; details: for Cmax / half-life / AUC(0-t) / Tmax: human, plasma; for Cmax / half-life / AUC(0-t): geometric mean (CV %); for AUC(0-t): read-out: AUC0-24; for Tmax: median
Description: Plasma samples for PK analyses were collected during Cycle 1 on Day 1 and Day 4 (pre-dose and 0.5, 1, 2, 4, 6, 8, 10, and 24 hours post-dose), and pre-dose and 4 hours post-dose on Cycle 1 on Day 15. PK analyses were conducted using Phoenix® VVinNonlin. For pharmacodynamic and biomarker analyses, peripheral blood samples were collected into PAXgene® Blood RNA Tubes (BD Biosciences, San Jose, California) at Cycle 1 Day 1 (pre-dose and 1, 2, 4, 10 and 24 hours post-dose) for all patients. RNA was extracted using Maxwell® simplyRNA Blood Kit (Promega, Madison, Wisconsin). Target engagement (i.e., splicing modulation) was measured by assessing relative expression of representative pre- and mature-mRNA or aberrant and canonical transcripts at post-dose time points comparing to pre-dose, using a customized Nanostring nCounter gene expression panel (NanoString Technologies, Seattle, Washington). For splicing mutation analysis, peripheral blood was collected into PAXgene® Blood DNA Tubes (BD Biosciences, San Jose, California). Baseline splicing mutations were identified using the Focus:Myeloid™ Next Generation Sequencing (NGS) panel determined centrally by Cancer Genetics Inc. (Rutherford, NJ). Biomarker analyses of pretreatment samples were conducted using one-way ANOVA and MedCalc® software. Receiver-Operating-Characteristics (ROC) curves were performed according to the methodology described by Hanley and McNeil (Radiology. 1982;143(1):29-36; see also Zweig and Campbell, Clin Chem. 1993;39(4):561-577).

Structure (SMILES): C/C(=C\C=C\[C@@H](C)c1ccccn1)[C@H]1OC(=O)C[C@H](O)CC[C@@](C)(O)[C@@H](OC(=O)N2CCN(C)CC2)/C=C/[C@@H]1C [Compound 1, (2S,3S,4E,6S,7R,10R)-7,10-dihydroxy-3,7-dimethyl-12-oxo-2-[(2E,4E,6R)-6-(pyridine-2-yl)hepta-2,4-dien-2-yl]oxacyclododec-4-en-6-yl-4-methylpiperazine-1-carboxylate]
- dose-limiting toxicity (DLT) [1]: gastrointestinal distress and colitis
- Cmax ([2]; oral, 1.0 mg once daily): 0.835 ng/mL
- half-life ([2]; oral, 1.0 mg once daily): 306 min
- AUC(0-t) ([2]; oral, 1.0 mg once daily): 4.89 ng·h/mL
- Tmax ([2]; oral, 1.0 mg once daily): 2 h
- Cmax ([2]; oral, 2.0 mg once daily): 1.09 ng/mL
- half-life ([2]; oral, 2.0 mg once daily): 324 min
- AUC(0-t) ([2]; oral, 2.0 mg once daily): 8.39 ng·h/mL
- Tmax ([2]; oral, 2.0 mg once daily): 2 h
- Cmax ([2]; oral, 3.5 mg once daily): 2.78 ng/mL
- half-life ([2]; oral, 3.5 mg once daily): 324 min
- AUC(0-t) ([2]; oral, 3.5 mg once daily): 15.6 ng·h/mL
- Tmax ([2]; oral, 3.5 mg once daily): 1.5 h
- Cmax ([2]; oral, 5.0 mg once daily): 3.94 ng/mL
- half-life ([2]; oral, 5.0 mg once daily): 348 min
- AUC(0-t) ([2]; oral, 5.0 mg once daily): 24.5 ng·h/mL
- Tmax ([2]; oral, 5.0 mg once daily): 1 h
- Cmax ([2]; oral, 7.0 mg once daily): 9.61 ng/mL
- half-life ([2]; oral, 7.0 mg once daily): 318 min
- AUC(0-t) ([2]; oral, 7.0 mg once daily): 39.4 ng·h/mL
- Tmax ([2]; oral, 7.0 mg once daily): 1 h
- Cmax ([2]; oral, 10 mg once daily): 12.7 ng/mL
- half-life ([2]; oral, 10 mg once daily): 330 min
- AUC(0-t) ([2]; oral, 10 mg once daily): 51 ng·h/mL
- Tmax ([2]; oral, 10 mg once daily): 1 h
- Cmax ([2]; oral, 12 mg once daily): 12.2 ng/mL
- half-life ([2]; oral, 12 mg once daily): 324 min
- AUC(0-t) ([2]; oral, 12 mg once daily): 64.7 ng·h/mL
- Tmax ([2]; oral, 12 mg once daily): 2 h
- Cmax ([2]; oral, 14 mg once daily): 25.6 ng/mL
- half-life ([2]; oral, 14 mg once daily): 306 min
- AUC(0-t) ([2]; oral, 14 mg once daily): 108 ng·h/mL
- Tmax ([2]; oral, 14 mg once daily): 1 h
- Cmax ([2]; oral, 40 mg once daily): 73.3 ng/mL
- half-life ([2]; oral, 40 mg once daily): 270 min
- AUC(0-t) ([2]; oral, 40 mg once daily): 265 ng·h/mL
- Tmax ([2]; oral, 40 mg once daily): 0.5 h
- Cmax ([2]; 20 mg once daily): 33.6 ng/mL
- half-life ([2]; 20 mg once daily): 306 min
- AUC(0-t) ([2]; 20 mg once daily): 142 ng·h/mL
- Tmax ([2]; 20 mg once daily): 0.75 h
- Cmax ([2]; 30 mg once daily): 34.4 ng/mL
- half-life ([2]; 30 mg once daily): 318 min
- AUC(0-t) ([2]; 30 mg once daily): 159 ng·h/mL
- Tmax ([2]; 30 mg once daily): 1.25 h
- absorption ([2]; preliminary PK analysis): rapidly absorbed
- dose dependence of plasma exposure ([2]; preliminary PK analysis): dose-proportional increase in plasma exposure
- inter-individual variability on clearance/bioavailability ([2]; preliminary population PK modeling): about 34%
